Results as given in ChEMBL document CHEMBL5233229, “Recent advances in the development of ubiquitin-specific-processing protease 7 (USP7) inhibitors” (Eur J Med Chem, 2020).

Legend:
[1] = target: T1, Ubiquitin carboxyl-terminal hydrolase 7 (Homo sapiens, UniProt Q93009); experiment: Inhibition of USP7 (unknown origin)
Target sequence in this assay (Q93009 whole entry): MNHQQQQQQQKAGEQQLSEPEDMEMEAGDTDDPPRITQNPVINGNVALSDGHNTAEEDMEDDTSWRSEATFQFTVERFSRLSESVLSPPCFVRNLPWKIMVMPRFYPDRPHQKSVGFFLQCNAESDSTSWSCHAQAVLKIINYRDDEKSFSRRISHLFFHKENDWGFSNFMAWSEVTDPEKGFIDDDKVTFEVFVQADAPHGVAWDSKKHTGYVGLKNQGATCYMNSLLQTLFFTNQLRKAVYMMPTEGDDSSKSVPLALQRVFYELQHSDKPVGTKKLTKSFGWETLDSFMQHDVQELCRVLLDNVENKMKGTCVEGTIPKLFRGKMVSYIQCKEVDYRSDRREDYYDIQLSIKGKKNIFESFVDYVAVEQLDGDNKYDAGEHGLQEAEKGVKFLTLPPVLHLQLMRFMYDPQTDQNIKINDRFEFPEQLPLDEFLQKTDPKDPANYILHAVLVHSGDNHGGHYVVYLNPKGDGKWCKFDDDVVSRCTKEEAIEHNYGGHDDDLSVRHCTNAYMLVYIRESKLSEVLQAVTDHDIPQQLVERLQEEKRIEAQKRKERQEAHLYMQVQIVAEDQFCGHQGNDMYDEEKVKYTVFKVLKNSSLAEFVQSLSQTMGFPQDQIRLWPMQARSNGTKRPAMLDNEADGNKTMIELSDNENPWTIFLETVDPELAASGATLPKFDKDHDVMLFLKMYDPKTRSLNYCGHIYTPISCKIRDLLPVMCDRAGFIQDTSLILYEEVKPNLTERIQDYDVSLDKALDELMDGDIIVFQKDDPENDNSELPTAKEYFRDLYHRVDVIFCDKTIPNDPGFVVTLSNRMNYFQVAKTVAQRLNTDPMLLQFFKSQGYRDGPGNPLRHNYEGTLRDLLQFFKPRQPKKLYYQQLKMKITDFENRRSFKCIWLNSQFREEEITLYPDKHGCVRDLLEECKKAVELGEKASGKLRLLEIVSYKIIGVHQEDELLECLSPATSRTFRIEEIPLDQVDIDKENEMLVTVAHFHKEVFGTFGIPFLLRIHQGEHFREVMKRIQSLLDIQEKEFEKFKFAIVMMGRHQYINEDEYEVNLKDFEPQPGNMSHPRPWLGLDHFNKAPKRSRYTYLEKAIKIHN

[2] = target: T1, Ubiquitin carboxyl-terminal hydrolase 7; experiment: Inhibition of human USP7 by SPR analysis
Target sequence in this assay (Q93009 whole entry): as above

[3] = target: T1, Ubiquitin carboxyl-terminal hydrolase 7; experiment: Inhibition of human his tagged USP7 (208 to 560 residues) expressed in insect sf9 cells using monoubiquitinated ubiquitin-rhodamine as substrate assessed as ratio of Kinact/Ki incubated for 1 hrs by fluorescence based assay
Target sequence in this assay (Q93009 whole entry, looked up): as the sequence (Q93009 whole entry) above

[4] = target: T1, Ubiquitin carboxyl-terminal hydrolase 7; experiment: Inhibition of human his tagged USP7 (208 to 560 residues) expressed in insect sf9 cells using monoubiquitinated ubiquitin-rhodamine as substrate assessed as dissociation constant incubated for 1 hrs by fluorescence based assay
Target sequence in this assay (Q93009 whole entry): as above

[5] = target: T2, Ubiquitin carboxyl-terminal hydrolase 2 (Homo sapiens, UniProt O75604); experiment: Inhibition of human his tagged USP2 by Westernblot analysis
T2 sequence (O75604 whole entry): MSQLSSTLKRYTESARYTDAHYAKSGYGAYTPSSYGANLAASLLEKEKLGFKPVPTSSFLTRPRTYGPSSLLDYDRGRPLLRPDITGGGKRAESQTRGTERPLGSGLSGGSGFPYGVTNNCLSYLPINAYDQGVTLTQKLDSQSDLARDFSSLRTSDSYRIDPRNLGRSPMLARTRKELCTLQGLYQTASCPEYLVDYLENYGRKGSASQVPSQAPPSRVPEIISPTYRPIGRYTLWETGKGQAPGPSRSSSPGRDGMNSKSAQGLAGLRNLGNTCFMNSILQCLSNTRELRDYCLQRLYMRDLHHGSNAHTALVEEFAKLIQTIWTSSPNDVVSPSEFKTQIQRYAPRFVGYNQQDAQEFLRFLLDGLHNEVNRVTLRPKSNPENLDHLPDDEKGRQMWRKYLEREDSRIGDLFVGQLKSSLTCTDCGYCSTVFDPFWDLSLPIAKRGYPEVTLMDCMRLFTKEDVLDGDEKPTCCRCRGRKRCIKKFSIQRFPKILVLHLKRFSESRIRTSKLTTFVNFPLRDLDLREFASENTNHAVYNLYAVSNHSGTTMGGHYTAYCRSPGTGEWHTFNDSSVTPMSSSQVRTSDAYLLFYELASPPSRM

[6] = target: T3, Ubiquitin carboxyl-terminal hydrolase isozyme L3 (Homo sapiens, UniProt P15374); experiment: Inhibition of human his tagged UCH-L3 by Westernblot analysis
T3 sequence (P15374 whole entry): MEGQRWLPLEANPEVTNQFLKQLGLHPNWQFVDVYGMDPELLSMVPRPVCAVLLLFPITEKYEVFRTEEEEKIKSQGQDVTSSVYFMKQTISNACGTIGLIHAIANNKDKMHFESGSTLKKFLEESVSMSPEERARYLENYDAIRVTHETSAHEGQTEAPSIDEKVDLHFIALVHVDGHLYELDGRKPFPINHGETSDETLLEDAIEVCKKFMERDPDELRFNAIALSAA

[7] = target: T4, Ubiquitin carboxyl-terminal hydrolase isozyme L1 (Homo sapiens, UniProt P09936); experiment: Inhibition of human his tagged UCH-L1 by Westernblot analysis
T4 sequence (P09936 whole entry): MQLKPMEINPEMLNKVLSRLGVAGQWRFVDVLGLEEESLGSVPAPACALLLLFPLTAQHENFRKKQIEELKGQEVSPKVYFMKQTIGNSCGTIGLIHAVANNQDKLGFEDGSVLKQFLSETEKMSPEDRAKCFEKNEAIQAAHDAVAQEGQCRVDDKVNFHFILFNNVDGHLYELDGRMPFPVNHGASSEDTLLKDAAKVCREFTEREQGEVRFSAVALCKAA

[8] = target: T5, Ubiquitin carboxyl-terminal hydrolase 8 (Homo sapiens, UniProt P40818); experiment: Inhibition of human his tagged USP8 by Westernblot analysis
T5 sequence (P40818 whole entry): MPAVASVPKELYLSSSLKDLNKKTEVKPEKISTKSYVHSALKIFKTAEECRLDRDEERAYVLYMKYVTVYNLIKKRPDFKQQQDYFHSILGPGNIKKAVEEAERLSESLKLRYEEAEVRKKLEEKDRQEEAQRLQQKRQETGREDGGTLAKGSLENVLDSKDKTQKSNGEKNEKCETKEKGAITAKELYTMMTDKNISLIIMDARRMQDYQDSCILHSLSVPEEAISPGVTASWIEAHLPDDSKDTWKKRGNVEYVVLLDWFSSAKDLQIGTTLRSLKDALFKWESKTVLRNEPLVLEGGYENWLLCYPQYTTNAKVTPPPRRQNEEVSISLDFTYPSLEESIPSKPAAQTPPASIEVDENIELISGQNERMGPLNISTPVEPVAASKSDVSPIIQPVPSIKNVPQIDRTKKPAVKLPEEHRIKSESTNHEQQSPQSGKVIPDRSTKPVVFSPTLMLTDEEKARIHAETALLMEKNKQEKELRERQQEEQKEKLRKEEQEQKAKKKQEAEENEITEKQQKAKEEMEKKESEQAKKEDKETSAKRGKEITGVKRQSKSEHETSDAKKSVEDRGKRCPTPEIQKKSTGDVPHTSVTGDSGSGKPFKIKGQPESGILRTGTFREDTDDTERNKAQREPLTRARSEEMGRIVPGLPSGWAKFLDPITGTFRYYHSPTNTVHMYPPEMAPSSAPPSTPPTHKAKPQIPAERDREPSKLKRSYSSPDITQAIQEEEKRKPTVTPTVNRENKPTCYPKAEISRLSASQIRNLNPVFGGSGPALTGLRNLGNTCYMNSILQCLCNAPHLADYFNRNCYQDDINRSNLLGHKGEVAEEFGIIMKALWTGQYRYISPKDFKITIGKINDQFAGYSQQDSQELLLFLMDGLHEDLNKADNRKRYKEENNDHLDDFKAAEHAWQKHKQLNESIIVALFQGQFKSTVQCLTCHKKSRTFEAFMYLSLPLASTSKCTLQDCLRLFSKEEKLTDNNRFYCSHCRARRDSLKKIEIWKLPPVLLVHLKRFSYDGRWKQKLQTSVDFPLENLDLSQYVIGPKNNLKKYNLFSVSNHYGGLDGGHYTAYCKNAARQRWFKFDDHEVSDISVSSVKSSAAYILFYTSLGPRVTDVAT

[9] = target: T6, Ubiquitin carboxyl-terminal hydrolase 5 (Homo sapiens, UniProt P45974); experiment: Inhibition of human his tagged USP5 by Westernblot analysis
T6 sequence (P45974 whole entry): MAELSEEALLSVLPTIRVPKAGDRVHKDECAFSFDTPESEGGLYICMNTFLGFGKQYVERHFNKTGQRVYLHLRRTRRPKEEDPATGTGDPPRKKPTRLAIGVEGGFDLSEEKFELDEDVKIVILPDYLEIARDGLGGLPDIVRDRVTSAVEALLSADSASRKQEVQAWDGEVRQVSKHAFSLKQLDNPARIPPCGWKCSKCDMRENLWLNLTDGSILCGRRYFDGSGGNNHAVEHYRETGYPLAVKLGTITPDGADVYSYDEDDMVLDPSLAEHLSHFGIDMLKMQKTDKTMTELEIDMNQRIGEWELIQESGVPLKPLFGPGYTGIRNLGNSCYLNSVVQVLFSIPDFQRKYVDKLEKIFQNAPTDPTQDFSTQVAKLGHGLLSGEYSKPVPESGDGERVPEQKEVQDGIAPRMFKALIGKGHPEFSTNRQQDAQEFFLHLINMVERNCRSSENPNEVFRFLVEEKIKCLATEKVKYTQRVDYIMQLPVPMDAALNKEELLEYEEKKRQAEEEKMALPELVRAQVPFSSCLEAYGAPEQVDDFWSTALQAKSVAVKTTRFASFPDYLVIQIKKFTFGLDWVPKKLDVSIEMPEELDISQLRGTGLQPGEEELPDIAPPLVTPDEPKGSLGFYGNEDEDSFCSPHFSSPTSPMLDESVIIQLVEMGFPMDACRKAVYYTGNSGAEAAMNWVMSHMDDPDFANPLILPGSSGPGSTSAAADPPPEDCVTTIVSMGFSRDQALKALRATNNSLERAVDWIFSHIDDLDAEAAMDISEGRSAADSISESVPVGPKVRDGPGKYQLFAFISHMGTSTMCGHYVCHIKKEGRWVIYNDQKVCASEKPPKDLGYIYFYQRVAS

[10] = target: Ubiquitin carboxyl-terminal hydrolase 20 (Homo sapiens, UniProt Q9Y2K6); experiment: Inhibition of human his tagged USP20 by Westernblot analysis
[11] = target: T7, Ubiquitin carboxyl-terminal hydrolase 28 (Homo sapiens, UniProt Q96RU2); experiment: Inhibition of USP28 (unknown origin) using […] as substrate by […] analysis
T7 sequence (Q96RU2 whole entry): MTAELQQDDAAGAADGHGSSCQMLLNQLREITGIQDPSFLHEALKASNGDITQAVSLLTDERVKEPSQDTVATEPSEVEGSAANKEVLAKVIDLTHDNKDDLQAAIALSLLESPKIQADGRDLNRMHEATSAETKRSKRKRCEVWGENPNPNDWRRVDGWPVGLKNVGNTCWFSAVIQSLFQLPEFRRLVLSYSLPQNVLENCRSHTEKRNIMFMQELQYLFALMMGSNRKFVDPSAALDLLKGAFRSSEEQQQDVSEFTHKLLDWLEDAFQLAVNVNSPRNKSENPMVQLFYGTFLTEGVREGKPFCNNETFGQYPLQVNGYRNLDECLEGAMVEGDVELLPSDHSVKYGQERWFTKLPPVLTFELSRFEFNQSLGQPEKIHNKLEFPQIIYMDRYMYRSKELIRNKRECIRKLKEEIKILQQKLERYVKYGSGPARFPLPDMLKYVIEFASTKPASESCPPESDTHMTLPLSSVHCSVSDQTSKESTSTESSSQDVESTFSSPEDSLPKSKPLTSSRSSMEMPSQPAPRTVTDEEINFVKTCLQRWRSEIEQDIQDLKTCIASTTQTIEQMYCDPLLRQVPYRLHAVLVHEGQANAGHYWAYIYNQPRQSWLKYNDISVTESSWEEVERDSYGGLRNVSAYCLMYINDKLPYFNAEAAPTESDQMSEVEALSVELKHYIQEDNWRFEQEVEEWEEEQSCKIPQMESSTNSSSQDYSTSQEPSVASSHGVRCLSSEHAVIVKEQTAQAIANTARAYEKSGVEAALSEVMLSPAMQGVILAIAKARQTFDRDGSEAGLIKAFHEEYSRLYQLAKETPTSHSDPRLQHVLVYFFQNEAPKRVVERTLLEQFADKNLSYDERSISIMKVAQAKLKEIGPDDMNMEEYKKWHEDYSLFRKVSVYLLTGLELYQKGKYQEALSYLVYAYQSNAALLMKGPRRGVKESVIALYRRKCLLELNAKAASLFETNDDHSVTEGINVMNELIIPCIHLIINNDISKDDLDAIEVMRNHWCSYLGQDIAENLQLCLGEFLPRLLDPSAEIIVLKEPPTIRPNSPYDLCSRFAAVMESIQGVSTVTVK

[12] = target: T8, Ubiquitin carboxyl-terminal hydrolase 25 (Homo sapiens, UniProt Q9UHP3); experiment: Inhibition of USP25 (unknown origin) using […] as substrate by […] analysis
T8 sequence (Q9UHP3 whole entry): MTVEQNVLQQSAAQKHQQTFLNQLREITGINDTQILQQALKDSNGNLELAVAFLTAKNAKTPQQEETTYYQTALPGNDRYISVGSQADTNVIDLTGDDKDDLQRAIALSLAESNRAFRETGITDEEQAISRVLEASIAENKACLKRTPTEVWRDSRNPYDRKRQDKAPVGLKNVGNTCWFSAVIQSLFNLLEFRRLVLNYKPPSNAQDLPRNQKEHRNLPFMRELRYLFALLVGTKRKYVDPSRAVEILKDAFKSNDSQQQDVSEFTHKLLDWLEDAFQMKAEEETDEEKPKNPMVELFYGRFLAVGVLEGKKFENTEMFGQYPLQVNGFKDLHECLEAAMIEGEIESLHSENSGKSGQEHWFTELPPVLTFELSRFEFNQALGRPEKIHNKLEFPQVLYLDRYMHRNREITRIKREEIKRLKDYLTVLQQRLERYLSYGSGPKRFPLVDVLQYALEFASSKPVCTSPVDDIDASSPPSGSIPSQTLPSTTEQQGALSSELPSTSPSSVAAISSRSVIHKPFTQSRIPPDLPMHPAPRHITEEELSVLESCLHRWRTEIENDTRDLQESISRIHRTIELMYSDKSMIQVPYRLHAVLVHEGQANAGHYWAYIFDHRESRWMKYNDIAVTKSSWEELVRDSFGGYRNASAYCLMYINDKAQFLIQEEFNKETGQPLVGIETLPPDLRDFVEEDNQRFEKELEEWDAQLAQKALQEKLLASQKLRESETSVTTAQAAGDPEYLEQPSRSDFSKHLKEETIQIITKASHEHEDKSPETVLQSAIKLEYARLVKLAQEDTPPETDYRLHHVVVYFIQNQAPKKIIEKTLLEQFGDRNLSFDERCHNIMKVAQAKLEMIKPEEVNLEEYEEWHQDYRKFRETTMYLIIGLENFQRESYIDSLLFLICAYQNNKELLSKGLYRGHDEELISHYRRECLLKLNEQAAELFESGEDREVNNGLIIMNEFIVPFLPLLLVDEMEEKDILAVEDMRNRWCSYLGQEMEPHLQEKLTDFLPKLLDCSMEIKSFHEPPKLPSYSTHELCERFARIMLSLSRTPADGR

[13] = target: T9, Ubiquitin carboxyl-terminal hydrolase 2 (Homo sapiens) (UniProt O75604); experiment: Inhibition of human USP2 (258 to 605 residues) catalytic domain assessed as inhibition constant by fluorescence based assay
T9 sequence (whole entry): T2 sequence (O75604 whole entry)

[14] = system: HCT-116; experiment: Anticancer activity against human HCT-116 cells assessed as cell growth inhibition; type: functional, cell-based
[15] = target: T1, Ubiquitin carboxyl-terminal hydrolase 7; experiment: Inhibition of human USP7 using Ub-Rho110 as substrate by fluorescence based SPR analysis
Target sequence in this assay (Q93009 whole entry): as the sequence (Q93009 whole entry) above

Sequence of Ubiquitin carboxyl-terminal hydrolase 20 (Q9Y2K6 whole entry): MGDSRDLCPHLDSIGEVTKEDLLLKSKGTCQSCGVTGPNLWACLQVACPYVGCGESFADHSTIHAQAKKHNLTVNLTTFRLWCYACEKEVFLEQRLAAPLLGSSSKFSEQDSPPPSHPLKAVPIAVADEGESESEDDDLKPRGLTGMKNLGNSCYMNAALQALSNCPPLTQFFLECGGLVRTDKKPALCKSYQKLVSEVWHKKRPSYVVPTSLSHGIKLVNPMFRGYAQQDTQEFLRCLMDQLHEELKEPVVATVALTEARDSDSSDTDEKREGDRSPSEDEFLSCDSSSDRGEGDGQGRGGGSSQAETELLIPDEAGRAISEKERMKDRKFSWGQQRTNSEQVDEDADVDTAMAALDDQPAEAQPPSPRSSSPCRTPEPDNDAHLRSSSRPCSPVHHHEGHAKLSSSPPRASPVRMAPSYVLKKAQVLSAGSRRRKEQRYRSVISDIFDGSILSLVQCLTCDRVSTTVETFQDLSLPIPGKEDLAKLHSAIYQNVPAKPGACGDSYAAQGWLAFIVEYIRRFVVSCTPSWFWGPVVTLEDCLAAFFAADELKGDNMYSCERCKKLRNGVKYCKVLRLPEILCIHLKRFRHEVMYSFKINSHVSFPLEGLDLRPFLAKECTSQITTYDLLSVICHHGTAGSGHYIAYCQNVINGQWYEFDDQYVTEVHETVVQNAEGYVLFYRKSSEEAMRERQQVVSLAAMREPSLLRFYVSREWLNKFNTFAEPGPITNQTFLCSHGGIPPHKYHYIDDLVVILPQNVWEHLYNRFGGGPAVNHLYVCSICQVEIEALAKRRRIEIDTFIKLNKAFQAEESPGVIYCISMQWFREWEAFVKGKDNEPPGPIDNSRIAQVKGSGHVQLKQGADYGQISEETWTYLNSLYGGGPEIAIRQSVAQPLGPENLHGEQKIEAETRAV

Structure (SMILES): CC(=O)c1cc([N+](=O)[O-])c(Sc2c(Cl)cncc2Cl)s1
- IC50 [1]: 2 µM

Structure (SMILES): C=CS(=O)(=O)Nc1ccccc1-c1ccc(C(=O)N2CCC(O)(Cn3cnc4c(cnn4-c4ccc(F)cc4)c3=O)CC2)cc1
- IC50 [2]: 0.065 µM
- Ratio [3]: 66 M⁻¹ s⁻¹
- Kd [4]: 7.8 µM

Structure (SMILES): O=C(NCCc1ccc(Cl)cc1)c1ccc2nc3c(c(Cl)c2c1)CCCC3
- IC50 [5]: > 200 µM
- IC50 [6]: > 200 µM
- IC50 [7]: > 200 µM
- IC50 [8]: > 200 µM
- IC50 [9]: > 200 µM
- IC50 [10]: > 200 µM

Structure (SMILES): OCCNCc1cc(Br)ccc1OCc1cccc(OC(F)(F)F)c1
- IC50 [11]: 1.1 µM
- IC50 [12]: 0.88 µM

Structure (SMILES): Nc1nc2[nH]cnc2c(=S)[nH]1
- Kis [13]: 24.6 µM

Structure (SMILES): OCCNCc1cc(Br)ccc1OCc1ccccc1
- IC50 [11]: 59.6 µM
- IC50 [12]: 52.5 µM

Structure (SMILES): CN(CCCNC(=O)c1ccc2nc3c(c(Cl)c2c1)CCCC3)Cc1ccccc1
- IC50 [14]: 2 µM

Structure (SMILES): NCc1ccc(-c2[nH]nc3c(=O)n(CC4(O)CCN(C(=O)C[C@H](c5ccccc5)C(F)(F)F)CC4)cnc23)cc1
- IC50 [15]: 0.0015 µM
